Experimental data published in patent US5859007A, “CCK or gastrin modulating benzo [b][1,4] diazepines derivatives” (Glaxo Wellcome Inc., priority 1994, dated 1999).
Where two headings read alike, the source gives them in different places. No end group written: not given here.

Assays:
[1] = system: isolated guinea pig gallbladder; test: Functional activity in isolated guinea pig gallbladder preparation; type: cell-based
rat gastric emptying = test: Rat gastric emptying assay; type: in vivo; conditions: vehicle 66
Experimental: 7. RAT GASTRIC EMPTYING PROTOCOL
Methyl Cellulose (MC) Test Meal
1. Disperse MC in water at 80° C. at a final concentration of 1.5% under continuous stirring. Cool to room temperature.
2. Add Phenol Red (50 mg/100) to solution.
3. Keep solution stirring during entire experiment.
1. Food deprive animals for 18 hours.
2. Inject test drug/prop. glycol or prop. glycol alone intraperitoneally.
3. After 5 minutes, gavage 1.5 mL of Pheno Red/MC solution
1. After 20 minutes, decapitate animal
2. Clamp stomach at the pylorus and cardia ends, and rinse in 0.9% NaCl.
3. Place stomach in 100 mL of 0.1N NaOH, cut into small pieces, and homogenize for 30 seconds.
4. Let settle at room temperature for 60 minutes.
5. In centrifuge tube, add 5 mL of supernatant and 0.5 mL of trichloroacetic acid (29% w/v), and centrifuge at 2,800 rpm for 20 minutes.
6. Decant supernatant, and add 4 mL of 0.5N NaOH and read absorbance at a wavelength of 560 nm.
Calculations [formula] The standard stomach is determined from the phenol red recovered in stomachs of rats decapitated immediately after intragastric infusion of MC/phenol red.

[2] = Cavia porcellus, delivered at 30 μM, read-out: Isolated guinea pig gallbladder: % contraction
[3] = intraperitoneally at 0.1 μmoles/kg

Compound | activation at 30 µM [1, 2] [%] | rat gastric emptying: % emptying (rat gastric emptying; [3]) [%] | activation at 1 µM ([1]; Cavia porcellus, 1 × 10^-6 M test compound, expressed as % CCK-induced maximal response, read-out: %Contraction (1 × 10^-6 M)) [%] | activation at 30 µM ([1]; Cavia porcellus, 3 × 10^-5 M test compound, expressed as % CCK-induced maximal response, read-out: % Contraction (3 × 10^-5 M)) [%] | Isolated guinea pig gallbladder: % contraction ([1]; delivered at 1 μM) [%] | rat gastric emptying: % emptying (rat gastric emptying; CCK-8 intraperitoneally at 30 nmoles/kg) [%]
COc1ccc(N(C(=O)CN2C(=O)C(Cc3n[nH]c4ccccc34)C(=O)N(c3ccccc3)c3ccccc32)C(C)C)cc1 (centres unmarked) [Example 31, 2-[3-(1H-Indazol-3-ylmethyl)-2,4-dioxo-5-phenyl-2,3,4,5-tetrahydro-benzo[b][1,4]diazepin-1-yl]-N-isopropyl-N-(4-methoxy-phenyl) acetamide] | 87 | 6 |  |  |  | 
COc1ccc(N(C(=O)CN2C(=O)C(Cc3n[nH]c4ccccc34)C(=O)N(c3ccccn3)c3ccccc32)C(C)C)cc1 (centres unmarked) [Example 49, 2-[3-(1H-Indazol-3-ylmethyl)-2,4-dioxo-5-pyrid-2-yl-2,3,4,5-tetrahydro-benzo[b][1,4]diazepin-1-yl]-N-isopropyl-N-(4-methoxy-phenyl) acetamide] | 100 | 2.5 | 75 | 91 |  | 
CCK8: the Cterminal octapeptide of CCK (DYMGWMDF; ends and bridges not checked; UniProt P06307 96-103, looked up) [reference compound] |  |  |  |  | 100 | 0
